Columns and labels:
[1] = system: human neuroblastoma IMR-32 cells; assay: Pseudo-ganglion formation / differentiation of IMR-32 cells (phase-contrast microscope); assay type: cell-based
Excerpt: As [^3H] acetyl-coenzyme A (acetyl-CoA), a product manufactured by Amersham was used, and as propidium iodide, acridine orange and choline chloride, products manufactured by Sigma were used. As fetal bovine serum (hereinafter, abbreviated as FCS), a product manufactured by Cansera International was used.
Morphological change of the cells, and the number of pseudo-ganglia formed were observed under a phase-contrast microscope (magnification: 200).

rat glioma C6 cells [2] = assay: Number of surviving C6 cells after SBA treatment (trypan blue); assay type: cell-based; details: 3 days treatment
Experimental: Rat glioma C6 cells obtained from Japanese Cancer Research Resource Bank (JCRB) were inoculated on a medium in an amount of 1×10^5 cells/schale, cultured for 24 hours. […] Then, the cells were dyed with 0.2% trypan blue, then, the number of surviving cells was counted. The counted value of cell number represents average value±standard error (SE) of three continuous tests [*P<0.00301 and *P<0.00001 (in comparison with contrast)]. The counted value is shown as a bar graph in FIG. 3. This test was conducted in the absence of SBA, as a control test.

rat glioma C6 cells [3] = assay: Morphological change of C6 cells (phase-contrast microscope); assay type: cell-based; details: 125 μg/ml SBA, 3 days
[4] = system: patients having a cancer or tumor; assay: Clinical trial, intravenous SBA in patients having a cancer or tumor; assay type: in vivo, human
Excerpt: SBA can be administered, not only intravenously, but also into an abdominal cavity or subcutaneously, or orally.

[5] = system: patient having a cancer or tumor; details: intravenous 1.5 to 6 g per day per adult; cited from earlier work

Question: Which results are given for `O=C1O[C@H]([C@@H]2COC(c3ccccc3)O2)C(O)=C1O` (stereo partly drawn) [SBA, mono-sodium 5,6-O-benzylidene-L-ascorbate]?
Answer: survived cells induced to differentiate into neurocytes having neuritis ([1]; 500 μg/ml SBA): 20 to 30%; morphological change / formation of pseudo-ganglia ([1]; SBA treatment 48 hours): IMR-32 cells form pseudo-ganglia; CD50 (proliferation of C6 cells) (rat glioma C6 cells [2]): 250 µg/mL; morphological change of C6 cells (rat glioma C6 cells [3]): Formation of astrocytes was recognized; effect on cancer in patient with attendant rheumatoid arthritis ([4]; 3 mg/body once per day): the cancer reduces; differentiation of cancer or tumor cells in patients ([4]; intravenous 1 mg/body to 10 mg/body once per day per adult, 35 examples): induce differentiation of cancer cells or tumor cells into normal cells efficiently; differentiation of malignant cells forming new blood vessel ([4]; patient with augmented new blood vessel in eye and eyeground hemorrhage, intravenous 1 to 10 mg/body once per day): induces differentiation of malignant cells forming new blood vessel into normal cells; total dimension of the carcinoma or tumor [5]: decreases

Reference: patent publication US20040254123A1, “Malignant cell differentiation inducer compositions and utilization of the same” (priority 2001, published 2004)
